Measurements reported in patent US5744471A, “Pyridazion quinoline compounds” (Zeneca Limited, priority 1993, dated 1998).
Structures can show the parent of a compound that is named as a salt. Where two headings read alike, the source gives them in different places. Blank lines part the entries; values can stand above or below the compound they belong to.

Columns and labels:
[1] = target: T1, glycine receptor of the NMDA receptor complex (Rattus norvegicus, UniProt P35439); assay: [3H]-glycine binding assay (Test A; in-vitro glycine receptor assay); set-up: species or system rat (male Sprague-Dawley)
T1 construct: Freshly dissected cortices and hippocampi are homogenized in 0.32 M sucrose; from tissue; host or cells: rat cerebral cortex and hippocampus, synaptic membranes (male Sprague-Dawley)
Procedure: The actions of compounds according to the invention as antagonists at the giycine receptor of the NMDA receptor complex can be shown by one or more standard tests such as the [^3 H]-glycine binding assay (Test A) and by tests in vivo such as ischemia induced by carotid occlusion in the gerbil model (Test B). In addition to these tests, compounds of the invention are assayed in the red nucleus test (Test C) and in the Rat Middle Cerebral Artery test (Test D). These tests confirm that compounds of the invention are NMDA receptor antagonists in vitro and in vivo.
In the [^3 H]-glycine binding assay, neuronal synaptic membranes are prepared from adult (about 250 g) male Sprague-Dawley rats. Freshly dissected cortices and hippocampi are homogenized in 0.32 M sucrose (110 mg/mL). Synaptosomes are isolated by centrifugation (1000 xg, 10 min), the supernatant is pelleted (20,000 xg, 20 min) and resuspended in double-distilled water. The suspension was centrifuged for 20 minutes at 8,000 xg. The resulting supernatant and buffy coat are washed twice (48,000 xg, 10 mins, resuspension in double-deionized water). The final pellet is quickly frozen (dry ice/ethanol bath) under double-deionized water and stored at -70° C.
On the day of the experiment, thawed synaptic membranes are homogenized with a Brinkmann Polytron (tm, Brinkmann Instruments, Westbury, N.Y.) tissue homogenizer in 50 millimolar tris(hydroxymethyl)aminomethane citrate, pH 7.1. The membranes are incubated with 0.04% Sufact-AMPS X100 (tm, Pierce, Rockford, Ill.) in buffer for 20 minutes at 37° C. and washed six times by centrifugation (48,000 xg, 10 min) and resuspended in buffer. The final pellet is homogenized at 200 mg wet weight/mL of the buffer for the binding assay.
For [^3 H]-glycine binding at the N-methyl-D-aspartate receptor, 20 nanomolar [^3 H]-glycine (40-60 Ci/mmol, New England Nuclear, Boston, Mass.) is incubated with the membranes suspended in 50 millimolar tris (hydroxymethyl)aminomethane citrate, pH 7.1 for 30 minutes at 4° C. Glycine, 1 millimolar, is used to define the nonspecific binding. Bound [^3 H]-glycine is isolated from free using a Brandel (Biomedical Research and Development Laboratories, Gaithersburg, Md.) cell harvester for vacuum filtration over glass fiber filters (Whatman GF/B from Brandel, Gaithersburg, Md.) presoaked in 0.025% polyethylenimine. The samples retained on the glass fiber filters are rinsed 3 times with a total of 2.5 mL ice cold buffer. Radioactivity is estimated by liquid scintillation counting. IC50 values are obtained from a least-squares regression of a logit-log transformation of the data. […] The other examples disclosed herein are glycine antagonists.

[2] = test system: NMDA-induced excitatory response of red nucleus cells; assay: Red Nucleus Test (Test C); type: in vivo; conditions: Rattus norvegicus, iv, read-out: ID50 (NMDA-induced excitatory response of red nucleus cells)
Procedure: The purpose of this test is to determine the effects of intravenously administered glycine antagonists on the NMDA-induced excitatory response of red nucleus cells.
The procedure for the red nucleus test is as follows. Rats are anesthetized with chloral hydrate (400 mg/kg ip) and the femoral vein is catheterized for iv drug administration. Five-barrel micropipettes are stereotaxically positioned in the red nucleus. Typically, three to four of the five barrels are filled as follows: the recording barrel with 2M potassium citrate, the current balancing barrel with 4M NaCl, the drug barrel with 25 mM NMDA, and another drug barrel with 2.5 mM quisqualic acid (QA is only used in selectivity studies). NHDA is iontophoretically applied with an ejection current that is adjusted depending on the sensitivity of each individual red nucleus cell. The NMDA is cycled on and off (usually 30-60 sec. on and 60-120 sec. off) and the firing rate of the cell during each period is recorded. Once the baseline firing rate of the cell has been established, the test drug is administered iv. The effect of the drug on the NMDA-induced excitatory response of the red nucleus cell can be both qualitatively and quantitatively evaluated from the recordings and the raw data accumulated.

[3] = test system: neuronal damage in the hippocampus; assay: gerbil ischemic model, bilateral carotid occlusion (Test B); type: in vivo, Mongolian gerbils; conditions: 10 mg/Kg ip, 45 minutes before and 5 minutes after occlusion
Procedure: When testing in vivo using the gerbil ischemic model, adult female Mongolian gerbils (50-70 g) are anesthetized with 2 to 3% halothane. The bilateral common carotid arteries at the neck are exposed and occluded with microaneurysm clips. After 10 min (unless specified), the clips are removed and the blood flow through the carotid arteries is restored and the skin is sutured. Test compounds are administered intraperitoneally both pre- and post-occlusion, for example 45 minutes before and 5 minutes after occlusion of the carotid arteries. Sham-operated animals are treated in the same manner except that the arteries are not clamped. Gross behavioral observations along with motor activity are recorded for 2 hr on the first (24 hr) day following the occlusion. After 4 days, subjects are sacrificed (decapitation), brains are removed, fixed, sectioned and stained with hematoxylin/eosin and cresyl violet.
The brain sections are rated for neuronal damage in the hippocampus using the following rating scale:
1=slight damage (up to 25%)--restricted to CAI/subiculum border
2=moderate damage (up to 50%)--obvious damage, restricted to less than half of CA1 field […]
Sections (7 micron) are evaluated from each brain. […] The average brain damage rating score for each group is recorded, and the damage scores of the drug treated group are compared to the vehicle-treated group using Wilcoxon-Rank Sum test.

[4] = read-out: IC50 in the [3H]Gly test
[5] = 20 nanomolar [3H]-glycine, rat synaptic membranes, pH 7.1, 4° C., read-out: IC50 in the [3H]-glycine binding assay

- glycine receptor antagonist activity ([1]; result in words): active as a glycine receptor antagonist
Compound: O=C(NCCn1nc(O)c2[nH]c3cc(Cl)ccc3c(=O)c2c1=O)c1ccccc1 [2-ethylbenzamidederivative]

Compound: CC(=O)OCCn1nc(O)c2c(=O)c3ccc(Cl)cc3[nH]c2c1=O [3-(2-Acetoxyethyl), 3-(2-Acetoxyethyl)7-chloro-4-hydroxy-1,2,5,10-tetrahydropyridazino[4,5-]quinoline-1,10-dione]
- IC50 [1, 4]: > 100 µM

Compound: C/C(=C\C(N)C(=O)O)CP(=O)(O)O (stereo not shown) [CGP 37849]
- ED50 [2]: 1.7 mg/kg

- IC50 [1, 5]: 40 µM
Compound: O=c1c2ccc(Cl)cc2[nH]c2c(=O)n(CCO)nc(O)c12 [Example 1, 7-Chloro-1-hydroxy-3-(2-hydroxyethyl)-3,4,5,10-tetrahydropyridazino[4,5-b]quinoline-4,10-dione]

Compound: O=C1c2ccccc2C(=O)N1CCn1nc(O)c2[nH]c3cc(Cl)ccc3c(=O)c2c1=O [Example 4, 7-Chloro-4-hydroxy-2-(2-phthalimidoethyl)-1,2,5,10-tetrahydropyridazino[4,5-b]quinoline-1,10-dione]
- neuroprotection (relative to sham-operated control) [3]: 35%

- activity in the in-vitro glycine receptor assay ([1]; result in words): inactive
Compound: O=c1c2ccc(Cl)cc2[nH]c2c(=O)n(-c3ccccc3)nc(O)c12 [Example 5, 7-Chloro-1-hydroxy-3-phenyl-3,4,5,10-tetrahydropyridazino[4,5-b]-quinoline-4,10-dione, choline salt]

- IC50 [1, 4]: > 100 µM
- activity in the in-vitro glycine receptor assay ([1]; result in words): inactive
Compound: COc1ccc(-n2nc(O)c3c(=O)c4ccc(Cl)cc4[nH]c3c2=O)cc1 [Example 7, 7-Chloro-1-hydroxy-3-(4-methoxyphenyl)-3,4,5,10-tetrahydropyridazino[4,5-b]quinoline-4,10-dione]

- IC50 [1, 4]: > 100 µM
- activity in the in-vitro glycine receptor assay ([1]; result in words): inactive
Compound: O=c1c2ccc(Cl)cc2[nH]c2c(=O)n(-c3ccc(O)cc3)nc(O)c12 [Example 9, 7-Chloro-1-hy droxy-3-(4-hydroxyphenyl)-3,4,5,10-tetrahydropyridazino[4,5-b]quinoline-4,10-dione]

- IC50 [1, 5]: 0.12 µM
Compound: O=c1c2ccc(Cl)cc2[nH]c2c(O)nn(-c3ccc(O)cc3)c(=O)c12 [Example 10, 7-Chloro-4-hydroxy-2-(4-hydroxyphenyl)-1,2,5,10-tetrahydropyridazino[4,5-b]quinoline-1,10-dione]
- neuroprotection (relative to sham-operated control) [3]: over 80%

- activity in the in-vitro glycine receptor assay ([1]; result in words): inactive
Compound: O=c1c2ccc(Cl)cc2[nH]c2c(=O)n(-c3ccc(Cl)cc3)nc(O)c12 [Example 16, 7-Chloro-1-hydroxy-3-(4-chlorophenyl)-3,4,5,10-tetrahydropyridazino[4,5-b]quinoline-4,10-dione]

- activity in the in-vitro glycine receptor assay ([1]; result in words): inactive
Compound: Cc1ccc(-n2nc(O)c3c(=O)c4ccc(Cl)cc4[nH]c3c2=O)cc1 [Example 18, 7-Chloro-1-hydroxy-3-(4-methylphenyl)-3,4,5,10-tetrahydropyridazino[4,5-b]quinoline-4,10-dione]

- activity in the in-vitro glycine receptor assay ([1]; result in words): inactive
Compound: CC(C)c1ccc(-n2nc(O)c3c(=O)c4ccc(Cl)cc4[nH]c3c2=O)cc1 [Example 20, 7-Chloro-1-hydroxy-3-(4-isopropylphenyl)-3,4,5,10-tetrahydropyridazino[4,5- ]-quinoline-4,10-dione]

Compound: NC1CCN(O)C1=O (stereo not shown) [HA-966]
- ED50 ([2]; reference agents): 7.9 mg/kg
